Measurements as given in patent EP0543555A1, “Phosphorylated flavanoids in the treatment of viral diseases” (MERRELL DOW PHARMACEUTICALS INC., priority 1991, dated 1993).
Like-named read-outs stand apart in the source and are kept apart here.

Experiments:
HIV-1 [1] = experiment: microbe, parasite or virus in culture
Procedure: (§1) JM cells were infected with HIV-1 for 2 hours at room temperature. The cells were then washed and distributed into duplicate wells containing different concentrations of the test compound and incubated at 37°C. On days 3 and 4 the cells were observed and the syncytia counted and on day 4 the supernatant fluid was also harvested for detection of p24 viral core antigen using the Abbott EIA.

HIV-1 [2] = conditions: for p24: day 4 supernatant
Procedure: as §1

[3] = Human immunodeficiency virus 1, 72 h, read-out: Mean Syncytial Counts Day 3 %
[4] = Human immunodeficiency virus 1, 96 h, read-out: Mean Syncytial Counts Day 4 %

## Nc1ccn([C@H]2CC[C@@H](CO)O2)c(=O)n1 [ddC, reference compound]
HIV-1 [1]; [3]
  activity at 0.1 µM: 37%
  activity at 0.3 µM: 0%
  activity at 1 µM: 0%
  activity at 3 µM: 0%
  activity at 10 µM: 0%
HIV-1 [1]; [4]
  activity at 0.1 µM: 37%
  activity at 0.3 µM: 7%
  activity at 1 µM: 0%
  activity at 3 µM: 0%
  activity at 10 µM: 0%
HIV-1 [2]; Conc 0.1 µM
  Mean Syncytial Counts Day 3: 21
  Mean Syncytial Counts Day 4: 31
HIV-1 [2]; Conc 0.3 µM
  Mean Syncytial Counts Day 3: 0
  Mean Syncytial Counts Day 4: 6
  p24: 341 pg/mL
HIV-1 [2]; Conc 1 µM
  Mean Syncytial Counts Day 3: 0
  Mean Syncytial Counts Day 4: 0
  p24: 199 pg/mL
HIV-1 [2]; Conc 3 µM
  Mean Syncytial Counts Day 3: 0
  Mean Syncytial Counts Day 4: 0
  p24: 98 pg/mL
HIV-1 [2]; Conc 10 µM
  Mean Syncytial Counts Day 3: 0
  Mean Syncytial Counts Day 4: 0
  p24: 132 pg/mL
